Assay results: ChEMBL document CHEMBL5291721, “A preclinical secondary pharmacology resource illuminates target-adverse drug reaction associations of marketed drugs” (Nat Commun, 2023)

How the values were obtained:
D(3) dopamine receptor = D(3) dopamine receptor (Homo sapiens, UniProt P35462)
[1] = target: T1, Type-1 angiotensin II receptor (Homo sapiens, UniProt P30556)
T1 sequence (P30556 whole entry): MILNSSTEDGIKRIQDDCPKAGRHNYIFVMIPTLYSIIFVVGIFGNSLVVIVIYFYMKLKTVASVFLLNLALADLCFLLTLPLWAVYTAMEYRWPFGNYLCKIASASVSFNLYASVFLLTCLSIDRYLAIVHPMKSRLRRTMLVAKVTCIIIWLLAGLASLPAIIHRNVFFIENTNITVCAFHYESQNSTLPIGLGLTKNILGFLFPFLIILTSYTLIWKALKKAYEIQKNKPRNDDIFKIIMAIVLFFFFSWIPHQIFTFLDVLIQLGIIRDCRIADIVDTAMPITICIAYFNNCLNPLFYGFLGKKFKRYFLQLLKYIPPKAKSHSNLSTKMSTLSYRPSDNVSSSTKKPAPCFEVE

[2] = target: Beta-1 adrenergic receptor (Homo sapiens, UniProt P08588); type: functional
Sequence of Beta-1 adrenergic receptor (P08588 whole entry): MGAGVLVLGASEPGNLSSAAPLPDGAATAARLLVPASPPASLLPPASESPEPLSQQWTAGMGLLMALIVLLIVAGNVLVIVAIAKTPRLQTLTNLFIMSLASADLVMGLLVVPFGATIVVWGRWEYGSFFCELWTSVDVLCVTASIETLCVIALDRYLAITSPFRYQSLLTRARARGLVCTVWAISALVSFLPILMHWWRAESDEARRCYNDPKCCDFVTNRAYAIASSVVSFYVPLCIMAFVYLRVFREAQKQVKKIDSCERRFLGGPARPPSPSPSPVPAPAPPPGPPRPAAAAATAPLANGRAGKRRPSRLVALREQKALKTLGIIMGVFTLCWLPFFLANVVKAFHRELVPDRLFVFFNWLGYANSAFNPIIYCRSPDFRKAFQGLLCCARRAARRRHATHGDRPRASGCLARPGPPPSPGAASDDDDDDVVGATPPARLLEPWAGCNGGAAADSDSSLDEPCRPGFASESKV

[3] = target: Sodium-dependent noradrenaline transporter (Homo sapiens, UniProt P23975)
Sequence of Sodium-dependent noradrenaline transporter (P23975 whole entry): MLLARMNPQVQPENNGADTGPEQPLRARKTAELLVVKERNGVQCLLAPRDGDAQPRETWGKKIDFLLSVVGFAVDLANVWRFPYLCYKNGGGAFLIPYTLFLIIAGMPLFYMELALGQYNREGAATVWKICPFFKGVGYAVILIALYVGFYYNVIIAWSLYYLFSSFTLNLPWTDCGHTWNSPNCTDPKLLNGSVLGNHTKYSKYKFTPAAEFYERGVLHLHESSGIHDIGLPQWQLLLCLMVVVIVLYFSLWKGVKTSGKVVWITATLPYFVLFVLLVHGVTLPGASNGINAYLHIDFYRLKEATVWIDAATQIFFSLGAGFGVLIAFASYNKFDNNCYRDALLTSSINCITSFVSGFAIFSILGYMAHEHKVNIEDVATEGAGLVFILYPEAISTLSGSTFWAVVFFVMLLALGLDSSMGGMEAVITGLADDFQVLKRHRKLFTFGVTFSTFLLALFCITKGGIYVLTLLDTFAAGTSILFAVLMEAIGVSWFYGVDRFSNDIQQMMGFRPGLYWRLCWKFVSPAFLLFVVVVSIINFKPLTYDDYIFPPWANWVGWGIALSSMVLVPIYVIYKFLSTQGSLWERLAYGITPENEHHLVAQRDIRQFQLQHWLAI

Vasopressin V2 receptor = Vasopressin V2 receptor (Homo sapiens, UniProt P30518)
Sequence of Vasopressin V2 receptor (P30518 whole entry): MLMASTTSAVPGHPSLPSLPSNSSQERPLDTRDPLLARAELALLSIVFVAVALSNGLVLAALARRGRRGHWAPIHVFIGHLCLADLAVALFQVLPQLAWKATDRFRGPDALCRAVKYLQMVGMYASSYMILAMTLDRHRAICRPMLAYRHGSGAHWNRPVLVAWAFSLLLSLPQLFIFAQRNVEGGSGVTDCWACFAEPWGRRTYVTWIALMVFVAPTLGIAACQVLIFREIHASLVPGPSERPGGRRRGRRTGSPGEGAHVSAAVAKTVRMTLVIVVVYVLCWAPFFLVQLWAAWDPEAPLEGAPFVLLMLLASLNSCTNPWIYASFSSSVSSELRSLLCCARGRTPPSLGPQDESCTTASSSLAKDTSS

[4] = target: T2, 5-hydroxytryptamine receptor 2B (Homo sapiens, UniProt P41595); type: functional, cell-based
T2 sequence (P41595 whole entry): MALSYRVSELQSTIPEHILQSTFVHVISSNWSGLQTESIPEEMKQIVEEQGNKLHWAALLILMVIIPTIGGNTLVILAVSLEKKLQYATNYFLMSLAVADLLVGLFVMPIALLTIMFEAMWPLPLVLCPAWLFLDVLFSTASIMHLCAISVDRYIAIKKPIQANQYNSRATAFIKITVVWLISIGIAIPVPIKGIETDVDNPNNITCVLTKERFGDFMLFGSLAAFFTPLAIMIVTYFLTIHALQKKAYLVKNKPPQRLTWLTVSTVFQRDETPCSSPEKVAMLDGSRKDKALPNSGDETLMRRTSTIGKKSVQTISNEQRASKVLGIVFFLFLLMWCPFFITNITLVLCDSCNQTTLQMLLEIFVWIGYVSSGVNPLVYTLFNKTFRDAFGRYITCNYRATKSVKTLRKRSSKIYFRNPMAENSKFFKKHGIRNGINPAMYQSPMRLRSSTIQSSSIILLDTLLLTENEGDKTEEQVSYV

[5] = target: T3, Neuropeptide Y receptor type 1 (Homo sapiens, UniProt P25929)
T3 sequence (P25929 whole entry): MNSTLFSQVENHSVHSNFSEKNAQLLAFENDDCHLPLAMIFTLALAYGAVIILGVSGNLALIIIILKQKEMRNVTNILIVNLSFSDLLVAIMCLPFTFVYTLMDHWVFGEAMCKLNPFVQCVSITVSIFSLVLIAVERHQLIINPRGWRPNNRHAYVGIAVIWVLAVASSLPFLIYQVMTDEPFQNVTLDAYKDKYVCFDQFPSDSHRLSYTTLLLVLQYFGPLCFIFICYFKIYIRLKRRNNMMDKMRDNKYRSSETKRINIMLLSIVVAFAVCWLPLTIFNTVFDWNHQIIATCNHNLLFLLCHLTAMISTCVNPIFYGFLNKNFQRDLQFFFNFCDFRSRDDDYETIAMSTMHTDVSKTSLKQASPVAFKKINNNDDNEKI

[6] = target: T4, Muscarinic acetylcholine receptor M2 (Homo sapiens, UniProt P08172); type: functional, cell-based
T4 sequence (P08172 whole entry): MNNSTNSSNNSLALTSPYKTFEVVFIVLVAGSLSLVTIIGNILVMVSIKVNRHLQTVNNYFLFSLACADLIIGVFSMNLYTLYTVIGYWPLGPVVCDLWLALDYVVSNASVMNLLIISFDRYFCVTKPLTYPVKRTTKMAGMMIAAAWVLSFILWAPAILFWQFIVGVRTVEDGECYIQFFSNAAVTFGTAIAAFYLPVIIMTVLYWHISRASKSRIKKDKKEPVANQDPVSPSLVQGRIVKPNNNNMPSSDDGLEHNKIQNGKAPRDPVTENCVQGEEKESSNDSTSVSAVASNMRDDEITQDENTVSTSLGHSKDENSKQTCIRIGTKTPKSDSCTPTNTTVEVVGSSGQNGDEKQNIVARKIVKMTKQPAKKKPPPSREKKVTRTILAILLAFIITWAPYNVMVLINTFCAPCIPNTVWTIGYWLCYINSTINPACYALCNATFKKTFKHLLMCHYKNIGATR

[7] = target: T5, Alpha-2C adrenergic receptor (Homo sapiens, UniProt P18825); type: functional
T5 sequence (P18825 whole entry): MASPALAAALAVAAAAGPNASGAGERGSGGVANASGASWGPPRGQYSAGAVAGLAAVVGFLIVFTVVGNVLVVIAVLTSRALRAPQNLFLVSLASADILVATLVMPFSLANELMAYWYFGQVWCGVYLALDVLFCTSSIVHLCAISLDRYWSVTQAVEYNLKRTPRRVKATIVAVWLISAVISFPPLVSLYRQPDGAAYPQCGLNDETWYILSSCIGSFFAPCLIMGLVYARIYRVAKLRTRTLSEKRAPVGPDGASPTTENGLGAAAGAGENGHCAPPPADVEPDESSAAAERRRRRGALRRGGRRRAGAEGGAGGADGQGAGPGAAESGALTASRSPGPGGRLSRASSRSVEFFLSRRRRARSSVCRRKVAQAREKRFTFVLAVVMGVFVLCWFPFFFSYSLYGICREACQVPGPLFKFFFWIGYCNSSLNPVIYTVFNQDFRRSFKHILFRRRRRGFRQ

[8] = target: T4, Muscarinic acetylcholine receptor M2; type: functional, cell-based; remark: listed apart in the source
Adenosine receptor A2a = Adenosine receptor A2a (Homo sapiens, UniProt P29274)
Sequence of Adenosine receptor A2a (P29274 whole entry): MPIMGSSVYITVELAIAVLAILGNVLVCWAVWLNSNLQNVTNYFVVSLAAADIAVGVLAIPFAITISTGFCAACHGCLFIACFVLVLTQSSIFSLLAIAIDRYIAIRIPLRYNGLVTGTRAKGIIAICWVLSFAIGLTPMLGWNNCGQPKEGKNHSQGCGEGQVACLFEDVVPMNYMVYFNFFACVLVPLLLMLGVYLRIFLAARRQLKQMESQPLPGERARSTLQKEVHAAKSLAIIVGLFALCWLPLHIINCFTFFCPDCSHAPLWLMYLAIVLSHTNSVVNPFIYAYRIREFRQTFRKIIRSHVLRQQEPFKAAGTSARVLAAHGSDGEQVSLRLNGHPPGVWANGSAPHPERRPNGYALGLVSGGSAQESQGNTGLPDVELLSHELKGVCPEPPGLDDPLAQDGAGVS

[9] = target: T6, Alpha-2A adrenergic receptor (Homo sapiens, UniProt P08913); type: functional, cell-based
T6 sequence (P08913 whole entry): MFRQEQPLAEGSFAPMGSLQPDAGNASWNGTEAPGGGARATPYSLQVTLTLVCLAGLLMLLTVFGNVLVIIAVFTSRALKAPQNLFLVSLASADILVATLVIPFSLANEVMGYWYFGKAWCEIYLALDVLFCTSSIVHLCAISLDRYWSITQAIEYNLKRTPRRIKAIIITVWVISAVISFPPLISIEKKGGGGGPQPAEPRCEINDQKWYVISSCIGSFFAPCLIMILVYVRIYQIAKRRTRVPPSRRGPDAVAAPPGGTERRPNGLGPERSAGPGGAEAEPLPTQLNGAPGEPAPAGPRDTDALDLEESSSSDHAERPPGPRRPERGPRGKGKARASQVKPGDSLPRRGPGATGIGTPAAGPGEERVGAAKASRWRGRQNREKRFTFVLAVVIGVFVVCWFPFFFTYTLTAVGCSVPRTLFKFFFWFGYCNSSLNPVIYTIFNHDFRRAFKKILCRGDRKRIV

[10] = target: cGMP-inhibited 3',5'-cyclic phosphodiesterase 3A (Homo sapiens, UniProt Q14432); type: functional
[11] = target: Voltage-dependent L-type calcium channel subunit alpha-1C (Rattus norvegicus, UniProt P22002); type: functional
Sequence of Voltage-dependent L-type calcium channel subunit alpha-1C (P22002 whole entry): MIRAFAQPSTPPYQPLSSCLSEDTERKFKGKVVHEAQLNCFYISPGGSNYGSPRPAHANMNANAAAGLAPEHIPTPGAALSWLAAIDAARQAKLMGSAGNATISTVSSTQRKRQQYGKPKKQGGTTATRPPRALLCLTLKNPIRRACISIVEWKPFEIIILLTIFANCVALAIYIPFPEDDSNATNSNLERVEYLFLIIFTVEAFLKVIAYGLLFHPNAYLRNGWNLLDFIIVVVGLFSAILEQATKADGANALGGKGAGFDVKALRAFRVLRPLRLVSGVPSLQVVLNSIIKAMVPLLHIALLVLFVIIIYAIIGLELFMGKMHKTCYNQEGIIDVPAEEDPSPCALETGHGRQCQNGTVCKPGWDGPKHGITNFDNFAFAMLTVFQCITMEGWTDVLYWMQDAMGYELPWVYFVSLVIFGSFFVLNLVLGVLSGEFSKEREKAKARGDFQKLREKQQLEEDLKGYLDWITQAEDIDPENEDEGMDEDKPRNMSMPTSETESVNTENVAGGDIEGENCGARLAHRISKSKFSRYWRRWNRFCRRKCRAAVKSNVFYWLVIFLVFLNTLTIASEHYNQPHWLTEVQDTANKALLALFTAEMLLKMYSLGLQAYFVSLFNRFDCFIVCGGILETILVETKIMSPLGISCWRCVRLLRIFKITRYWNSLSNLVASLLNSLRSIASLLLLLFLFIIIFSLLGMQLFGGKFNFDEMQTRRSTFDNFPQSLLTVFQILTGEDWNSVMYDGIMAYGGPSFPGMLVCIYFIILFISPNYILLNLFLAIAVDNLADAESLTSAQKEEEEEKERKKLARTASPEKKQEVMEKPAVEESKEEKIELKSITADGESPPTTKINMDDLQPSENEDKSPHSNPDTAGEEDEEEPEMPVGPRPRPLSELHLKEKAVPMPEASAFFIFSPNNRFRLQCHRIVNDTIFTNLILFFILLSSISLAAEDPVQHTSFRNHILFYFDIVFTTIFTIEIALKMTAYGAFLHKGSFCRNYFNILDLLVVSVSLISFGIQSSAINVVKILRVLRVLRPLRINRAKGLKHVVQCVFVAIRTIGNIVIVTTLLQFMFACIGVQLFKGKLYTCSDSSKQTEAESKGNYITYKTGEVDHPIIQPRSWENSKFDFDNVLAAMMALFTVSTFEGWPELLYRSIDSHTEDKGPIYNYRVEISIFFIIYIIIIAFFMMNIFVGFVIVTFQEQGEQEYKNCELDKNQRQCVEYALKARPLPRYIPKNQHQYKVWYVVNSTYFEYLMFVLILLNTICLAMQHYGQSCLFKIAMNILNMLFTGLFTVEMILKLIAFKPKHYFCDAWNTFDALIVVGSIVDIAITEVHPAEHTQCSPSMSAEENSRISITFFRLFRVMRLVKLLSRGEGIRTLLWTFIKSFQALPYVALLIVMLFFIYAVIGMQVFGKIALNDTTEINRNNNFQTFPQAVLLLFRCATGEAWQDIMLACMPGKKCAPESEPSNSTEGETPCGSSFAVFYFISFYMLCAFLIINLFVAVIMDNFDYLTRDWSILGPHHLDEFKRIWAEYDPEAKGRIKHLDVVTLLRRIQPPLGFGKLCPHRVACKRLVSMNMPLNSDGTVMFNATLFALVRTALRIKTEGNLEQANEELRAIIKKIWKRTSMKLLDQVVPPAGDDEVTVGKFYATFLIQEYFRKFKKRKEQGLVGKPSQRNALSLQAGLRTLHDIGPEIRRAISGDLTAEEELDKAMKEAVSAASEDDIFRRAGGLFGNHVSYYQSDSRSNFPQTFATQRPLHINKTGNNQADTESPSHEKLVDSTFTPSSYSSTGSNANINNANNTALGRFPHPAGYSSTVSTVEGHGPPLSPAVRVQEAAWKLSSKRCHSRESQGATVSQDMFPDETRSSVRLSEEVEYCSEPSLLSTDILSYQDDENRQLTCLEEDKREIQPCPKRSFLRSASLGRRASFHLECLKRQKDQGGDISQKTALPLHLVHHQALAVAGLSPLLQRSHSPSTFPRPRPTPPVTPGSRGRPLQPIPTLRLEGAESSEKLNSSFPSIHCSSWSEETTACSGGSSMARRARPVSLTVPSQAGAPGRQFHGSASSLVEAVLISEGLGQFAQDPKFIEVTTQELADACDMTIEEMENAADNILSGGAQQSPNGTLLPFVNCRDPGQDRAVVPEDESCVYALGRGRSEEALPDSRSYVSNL

Histamine H2 receptor = Histamine H2 receptor (Homo sapiens, UniProt P25021); type: functional, cell-based
Sequence of Histamine H2 receptor (P25021 whole entry): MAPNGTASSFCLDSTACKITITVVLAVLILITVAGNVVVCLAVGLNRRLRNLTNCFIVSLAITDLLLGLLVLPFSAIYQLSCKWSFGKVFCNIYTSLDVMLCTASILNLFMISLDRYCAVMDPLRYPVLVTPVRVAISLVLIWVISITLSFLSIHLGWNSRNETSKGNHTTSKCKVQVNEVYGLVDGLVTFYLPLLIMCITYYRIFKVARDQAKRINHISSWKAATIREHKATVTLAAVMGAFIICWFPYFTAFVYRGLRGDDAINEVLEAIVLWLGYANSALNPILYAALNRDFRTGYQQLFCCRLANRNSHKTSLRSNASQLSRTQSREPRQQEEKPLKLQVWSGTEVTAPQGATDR

[12] = target: T2, 5-hydroxytryptamine receptor 2B; type: functional, cell-based; remark: listed apart in the source
Also: assay procedure not described here.

SMILES | AC50 (D(3) dopamine receptor) | AC50 [1] | AC50 [2] | AC50 [3] | AC50 (Vasopressin V2 receptor) | AC50 [4] | AC50 [5] | AC50 [6] | AC50 [7] | AC50 [8] | AC50 (Adenosine receptor A2a) | AC50 [9] | AC50 [10] | AC50 [11] | AC50 (Histamine H2 receptor) | AC50 [12]
CCc1cc2c(s1)-n1c(C)nnc1CN=C2c1ccccc1Cl [ETIZOLAM] | > 30 µM | > 30 µM | > 30 µM | > 30 µM | > 30 µM | > 30 µM | > 30 µM | > 30 µM | > 30 µM | > 30 µM | > 30 µM | > 30 µM | > 30 µM | > 30 µM | > 30 µM | > 30 µM
CCOC(=O)c1ncn2c1CN(C)C(=O)c1cc(F)ccc1-2 [FLUMAZENIL] | > 30 µM | > 30 µM | > 30 µM | > 30 µM | > 30 µM | > 30 µM | > 30 µM | > 30 µM | > 30 µM | > 30 µM | > 30 µM | > 30 µM | > 30 µM | > 30 µM | > 30 µM | > 30 µM
CC/C=C\C/C=C\C/C=C\C/C=C\C/C=C\CCCC(=O)OCC [ICOSAPENT ETHYL] | > 30 µM | > 30 µM | > 30 µM | > 30 µM | > 10 µM | > 30 µM | > 30 µM | > 30 µM | > 30 µM | > 30 µM | > 30 µM | > 30 µM | > 30 µM | > 30 µM | > 30 µM | > 30 µM
NNC(=O)c1ccncc1 [ISONIAZID] | > 30 µM | > 30 µM | > 30 µM | > 30 µM | > 30 µM | > 30 µM | > 30 µM | > 30 µM | > 30 µM | > 30 µM | > 30 µM | > 30 µM | > 30 µM | > 30 µM | > 10 µM | > 30 µM
COc1ccc(CN2CCN(C(c3ccc(F)cc3)c3ccc(F)cc3)CC2)c(OC)c1OC [LOMERIZINE] | 2.2 µM | > 30 µM | > 30 µM | 18 µM | > 30 µM | > 30 µM | > 30 µM | 24 µM | 4.2 µM | > 30 µM | > 30 µM | > 30 µM | > 30 µM | 2.4 µM | > 30 µM | 5.9 µM
O=C1Nc2ccc(Cl)cc2C(c2ccccc2Cl)=NC1O (configuration not stated) [LORAZEPAM] | > 10 µM | > 30 µM | > 10 µM | > 10 µM | > 30 µM | > 10 µM | > 30 µM | > 10 µM | > 10 µM | > 10 µM | > 30 µM | > 10 µM | > 30 µM | > 10 µM | > 10 µM | > 10 µM
CN1CCN=C(c2ccccc2)c2cc(Cl)ccc21 [MEDAZEPAM] | > 30 µM | > 30 µM | > 30 µM | > 30 µM | > 30 µM | > 30 µM | > 30 µM | > 30 µM | > 30 µM | > 30 µM | > 30 µM | > 30 µM | > 30 µM | > 30 µM | > 30 µM | > 30 µM
CC(=O)[C@H]1CC[C@H]2[C@@H]3C[C@H](C)C4=CC(=O)CC[C@]4(C)[C@H]3[C@@H](O)C[C@]12C [MEDRYSONE] | > 30 µM | > 10 µM | > 10 µM | > 10 µM | > 10 µM | > 10 µM | > 10 µM | > 10 µM | > 10 µM | > 10 µM | > 10 µM | > 10 µM | > 30 µM | > 10 µM | > 10 µM | > 10 µM
CCCC(C)(COC(N)=O)COC(N)=O [MEPROBAMATE] | > 30 µM | > 10 µM | > 10 µM | > 10 µM | > 10 µM | > 10 µM | > 10 µM | > 10 µM | > 30 µM | > 10 µM | > 10 µM | > 10 µM | > 30 µM | > 10 µM | > 30 µM | > 10 µM
COc1ccc2cc(CCC(C)=O)ccc2c1 [NABUMETONE] | > 30 µM | > 10 µM | > 10 µM | 20 µM | > 10 µM | > 10 µM | > 10 µM | > 10 µM | > 30 µM | > 10 µM | > 10 µM | > 10 µM | > 30 µM | > 10 µM | > 30 µM | > 10 µM
Cc1ccnc2c1NC(=O)c1cccnc1N2C1CC1 [NEVIRAPINE] | > 10 µM | > 30 µM | > 10 µM | > 10 µM | > 30 µM | > 10 µM | > 30 µM | > 10 µM | > 10 µM | > 10 µM | 15.2 µM | > 10 µM | 4.5 µM | > 10 µM | > 10 µM | > 10 µM
O=C(c1cc(Cc2n[nH]c(=O)c3ccccc23)ccc1F)N1CCN(C(=O)C2CC2)CC1 [OLAPARIB] | > 30 µM | > 30 µM | > 30 µM | > 30 µM | > 30 µM | > 10 µM | > 30 µM | > 10 µM | > 10 µM | > 10 µM | > 30 µM | > 10 µM | 24 µM | > 10 µM | > 30 µM | > 10 µM
